Test results published in ChEMBL document CHEMBL1136535, “Unexpected inhibition of S-adenosyl-L-homocysteine hydrolase by a guanosine nucleoside” (Bioorg Med Chem Lett, 2003).

What was measured:
Adenosylhomocysteinase [1] = biological target: T1, Adenosylhomocysteinase (Homo sapiens, UniProt P23526); assay: Inhibitory activity against S-adenosyl-L-homocysteine hydrolase was determined
Adenosylhomocysteinase [2] = biological target: T1, Adenosylhomocysteinase; assay: Inhibitory activity against S-adenosyl-L-homocysteine hydrolase was determined in hydrolysis direction
Adenosylhomocysteinase [3] = biological target: T1, Adenosylhomocysteinase; assay: Inhibitory activity against S-adenosyl-L-homocysteine hydrolase was determined in synthetic directions

T1 sequence (P23526 whole entry): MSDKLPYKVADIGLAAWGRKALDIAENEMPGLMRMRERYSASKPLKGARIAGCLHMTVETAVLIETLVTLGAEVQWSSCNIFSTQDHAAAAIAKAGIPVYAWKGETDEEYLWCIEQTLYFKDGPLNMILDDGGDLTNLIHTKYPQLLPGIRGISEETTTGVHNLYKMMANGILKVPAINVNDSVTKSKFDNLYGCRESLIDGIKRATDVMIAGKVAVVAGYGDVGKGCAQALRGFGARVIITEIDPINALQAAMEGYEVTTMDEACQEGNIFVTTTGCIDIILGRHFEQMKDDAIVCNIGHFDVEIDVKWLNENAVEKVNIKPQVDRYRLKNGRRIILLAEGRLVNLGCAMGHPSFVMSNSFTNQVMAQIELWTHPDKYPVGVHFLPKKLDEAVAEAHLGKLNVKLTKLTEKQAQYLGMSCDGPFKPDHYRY

Ki (Adenosylhomocysteinase [1]) [µM] | Ki (Adenosylhomocysteinase [2]) [µM] | Ki (Adenosylhomocysteinase [3]) [µM] | Compound
422 |  |  | OC[C@H]1OC(n2cncc2-c2cc(O)ncn2)[C@H](O)[C@@H]1O (stereo not given in full)
 | 128 | 217 | Nc1nc(O)cc(-c2cncn2C2O[C@H](CO)[C@@H](O)[C@H]2O)n1 (stereo not given in full)
1470 |  |  | Nc1nc2c(ncn2[C@@H]2O[C@H](CO)[C@@H](O)[C@H]2O)c(=O)[nH]1 [GUANOSINE]
925 |  |  | OC[C@H]1O[C@@H](n2cnc3c(O)ncnc32)[C@H](O)[C@@H]1O [INOSINE]
